Test results taken from PubChem BioAssay (NCI).
Several values for one entry are separate records, joined by “and”; a condition that tells them apart may be missing. Identical values can stand only once.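 Following 48 hours of exposure in 96-well plates, responses at five concentrations were used to interpolate endpoints linearly. At the GI50, growth is halved. TGI: total growth inhibition.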

Experiments:
Test in all cases: NCI-60 cell line screen, 48 h
A549 NSCLC = test system: A549 NSCLC
SK-MEL-28 melanoma = test system: SK-MEL-28 melanoma
NCI-H23 lung = test system: NCI-H23 lung
SF-268 CNS = test system: SF-268 CNS
786-0 renal = test system: 786-0 renal
A498 renal = test system: A498 renal
IGROV1 ovarian = test system: IGROV1 ovarian
OVCAR-3 ovarian = test system: OVCAR-3 ovarian
SF-539 CNS = test system: SF-539 CNS
MDA-MB-231 breast = test system: MDA-MB-231 breast

Compound	GI50 (A549 NSCLC)	TGI (A549 NSCLC)	GI50 (SK-MEL-28 melanoma)	TGI (SK-MEL-28 melanoma) [µM]	GI50 (NCI-H23 lung)	TGI (NCI-H23 lung)	GI50 (SF-268 CNS)	TGI (SF-268 CNS) [µM]	GI50 (786-0 renal)	TGI (786-0 renal)	GI50 (A498 renal)	TGI (A498 renal)	GI50 (IGROV1 ovarian)	TGI (IGROV1 ovarian)	GI50 (OVCAR-3 ovarian)	TGI (OVCAR-3 ovarian)	GI50 (SF-539 CNS)	TGI (SF-539 CNS)	GI50 (MDA-MB-231 breast)	TGI (MDA-MB-231 breast)
CCS/C(Nc1ccccc1)=C(\C#N)C(=O)Nc1ccc(OC)cc1	5.91 µM	> 100 µM	15.3 µM	> 100	4.9 µM	> 100 µM	6.8 µM	> 100	4.14 µM	> 100 µM	2.54 µM	26.6 µM	5.3 µM	> 100 µM	2.6 µM	8.59 µM	1.96 µM	4.81 µM	4.14 µM	36.5 µM
Oc1c(CN2CCCC2)cc(COCc2ccccc2)c2cccnc12	3.35 µM	14.1 µM	3.49 µM	18.6	2.89 µM	11.6 µM	1.99 µM	18.5	2.22 µM	8.52 µM	3.82 µM	15 µM	3.54 µM	13.8 µM	2.13 µM	13.3 µM	2.89 µM	10.1 µM	4.98 µM	20.1 µM
O=C(NNS(=O)(=O)c1cc(C(F)(F)F)cc(C(F)(F)F)c1)c1cnn(-c2ccc(Cl)cc2)c1C(F)(F)F	13.7 µM	33.2 µM	20.3 µM	51.7	18.5 µM	40.8 µM	21.6 µM	52.6	18.1 µM	42.2 µM	14.1 µM	29.3 µM	17.4 µM	38.5 µM	15.3 µM	33.4 µM	18.4 µM	33.5 µM	19.6 µM	40.3 µM
C[C@@H]1CC[C@@]2(OC1)O[C@H]1C[C@H]3[C@@H]4CC=C5C[C@@H](O[C@@H]6O[C@H](CO)[C@@H](O[C@@H]7O[C@@H](CO)[C@H](O)[C@H]7O)[C@H](O)[C@H]6O[C@@H]6O[C@@H](C)[C@H](O)[C@@H](O)[C@H]6O)CC[C@]5(C)[C@H]4CC[C@]3(C)[C@H]1[C@@H]2C	–	2.04 µM	1.2 µM	2.44	1.58 µM	2.97 µM	1.21 µM	2.47	1.37 µM	2.68 µM	1.28 µM	2.55 µM	1.16 µM	2.38 µM	1.75 µM	3.12 µM	0.758 µM	2.02 µM	0.514 µM	1.77 µM
C#Cc1ccc(NC(=O)c2ccc(/C=C/C(=O)c3nccn3C)cc2)cc1	0.702 µM	5.02 µM	0.521 µM	1.24	0.46 µM	1.06 µM	0.76 µM	4.5	0.454 µM	0.892 µM	0.512 µM	1.39 µM	0.407 µM	0.884 µM	0.416 µM	0.792 µM	0.42 µM	0.801 µM	0.761 µM	2.71 µM
COc1ccc2c3c(c(OCCCN(C)C)nc2c1)-c1ccc(Cl)cc1C3=O	4.39 µM	23.1 µM	12.1 µM	27	11 µM	25.3 µM	6.42 µM	21.8	1.76 µM	3.64 µM	5.66 µM	16.5 µM	1.73 µM	25.9 µM	3.55 µM	16.7 µM	8.2 µM	21.3 µM	4.26 µM	23.7 µM
CCNCC(O)c1ccc(N)c([N+](=O)[O-])c1 (centres undefined)	–	> 100 µM	–	> 100	–	> 100 µM	–	> 100	–	> 100 µM	–	> 100 µM	–	> 100 µM	–	> 100 µM	–	> 100 µM	–	> 100 µM
O=C1/C(=C/c2cccs2)CCC/C1=C\c1cccs1	68.3 µM	> 100 µM	> 72.2 µM	> 100	> 83.8 µM	> 100 µM	33.5 µM	> 100	49.8 µM	> 100 µM	31.4 µM	> 100 µM	30.3 µM	98.5 µM	23.8 µM	> 100 µM	59.2 µM	> 100 µM	44.6 µM	> 100 µM
CC(=O)Oc1cccc2c1C(=O)c1c(OC(C)=O)cc(C)cc1C2=O	–	> 100 µM	–	> 100	–	> 100 µM	–	> 100	–	72.5 µM	–	> 100 µM	–	> 100 µM	–	> 100 µM	–	> 100 µM	–	> 100 µM
N#Cc1nc(-c2ccccc2)oc1S(=O)(=O)N1CCOCC1	27.9 µM	> 100 µM	2.46 µM	6.5	8.6 µM	26 µM	13.5 µM	40.4	16 µM	32 µM	15.6 µM	32 µM	8 µM	23.2 µM	2.02 µM	3.76 µM	2.6 µM	7.69 µM	14.1 µM	29.9 µM
COc1ccc(/C=C2\COc3ccc(-c4ccccc4)cc3C2=O)cc1O	2.96 µM	18.9 µM	1.88 µM	3.96	4.09 µM	16.6 µM	3.18 µM	12.7	5.02 µM	15.7 µM	2.4 µM	6.1 µM	4.37 µM	15.9 µM	1.76 µM	4.97 µM	2.45 µM	6.38 µM	3.98 µM	20.2 µM
Cc1nc(NC(=O)N2CCC[C@H]2C(N)=O)sc1-c1ccnc(C(C)(C)C(F)(F)F)c1	2.94 µM and 4.74 µM	30.9 µM and > 10 µM	4.72 µM and 6.71 µM	> 61.6	10.2 µM and > 10 µM	61.9 µM and > 10 µM	9.71 µM and 9.76 µM	> 86.5	11.1 µM and > 10 µM	64.1 µM and > 10 µM	1.34 µM and 2.07 µM	5.62 µM and 9.99 µM	0.0558 µM and 0.121 µM	0.483 µM and 0.816 µM	4.16 µM and 8 µM	30.7 µM and > 10 µM	3.93 µM and 4.6 µM	24.3 µM and > 10 µM	11.3 µM and > 10 µM	32 µM and > 10 µM
CC#CC(=O)N1CCC[C@H]1c1nc(-c2ccc(C(=O)Nc3ccccn3)cc2)c2c(N)nccn12	> 79.1 µM	> 100 µM	47.3 µM	> 100	> 100 µM	> 100 µM	52.7 µM	> 100	> 100 µM	> 100 µM	26.4 µM	> 81.9 µM	18 µM	> 83.8 µM	37.2 µM	> 100 µM	> 100 µM	> 100 µM	28.1 µM	> 100 µM
